Non-standard residues stand in square brackets, D forms with d. Residues, ends and D or L forms follow the SMILES beside them. 2Nal = N[C@@H](Cc1ccc2ccccc2c1)C(=O)O; Nle = CCCC[C@H](N)C(=O)O
Assays:
P. aeruginosa = format: cell-based, Pseudomonas aeruginosa; conditions: 18 h
Protocol: (§1) The present inventors evaluated […] in order to select peptides showing excellent performance among various peptides synthesized in the Example 1. Particularly, in order to measure the antimicrobial activity of the peptide, after preparing Gram-positive bacteria Staphylococcus aureus (S. aureus) and Gram-negative bacteria Pseudomonas aeruginosa (P. aeruginosa), the bacteria were plated on agar plate medium by fourth streaking and cultured overnight in a 36° C. incubator. The next day, the strain colonies produced on the agar plate medium were inoculated into 3 ml nutrient medium and cultured overnight in a stirring incubator at 36° C. and 220 rpm. The next day, the bacteria were diluted to measure absorbance at 600 nm, adjusted to OD600=0.5, and diluted in a 1:100 ratio in nutrient medium. Then, the peptides prepared in the above Examples were serially diluted in concentrations of 0, 1.25, 2.5, 5, 10, and 20 μM in a nutrient medium to prepare 1 ml each, and then inoculated with 1 ml of the diluted bacteria. Subsequently, the mixture was stirred under conditions of 36° C. and 220 rpm, and incubated for 18 hours, and absorbance at 600 nm was measured.
(§2) As a result, 20 peptides showing high antibacterial activity against P. aeruginosa and S. aureus) were selected (FIGS. 2 and 3).

FPR2 = target: T1, FPR2 (Homo sapiens, UniProt P25090); test: FPR2 activation by intracellular calcium ion increase (Fura-2/AM) in FPR2-RBL cells; format: cell-based; conditions: RBL cells overexpressing FPR2
T1 construct: expressed in transfected cells; host or cells: RBL cells overexpressing FPR2 (FPR2-RBL)
T1 sequence (P25090 1-351): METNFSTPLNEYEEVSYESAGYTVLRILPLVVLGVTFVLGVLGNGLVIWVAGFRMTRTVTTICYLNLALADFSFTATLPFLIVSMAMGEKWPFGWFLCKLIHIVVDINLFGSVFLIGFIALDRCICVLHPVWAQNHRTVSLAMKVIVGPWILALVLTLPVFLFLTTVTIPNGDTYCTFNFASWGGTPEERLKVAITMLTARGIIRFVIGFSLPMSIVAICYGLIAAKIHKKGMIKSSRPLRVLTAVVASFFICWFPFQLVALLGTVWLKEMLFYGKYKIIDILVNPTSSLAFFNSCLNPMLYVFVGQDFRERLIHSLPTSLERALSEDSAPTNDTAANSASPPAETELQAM
Protocol: The present inventors observed a change in calcium ion permeability of the candidate peptides according to an embodiment of the present invention in order to determine whether they can activate the immunomodulatory function in a body or not. Particularly, intracellular concentration of calcium ions was measured to confirm that the peptide activates FPR2. RBL cells that do neither express FPR1 nor FPR2, RBL cells overexpressed FPR1 (FPR1-RBL) and RBL cells that overexpressed FPR2 (FPR2-RBL) were used and Fura-2/AM which is a fluorophore having high binding affinity to calcium in order to measure intracellular calcium ion level sensitively. For this purpose, cells were cultured in RPMI medium supplemented with 10% fetal bovine serum and harvested by centrifugation in log phase (mid-log phase, 1-3×10^7 cells/ml), and then washed several times with RPMI medium not supplemented with fetal bovine serum, and then the cells were resuspended in RPMI medium to 1×10^7 cells/ml. Subsequently, a final 3 μM concentration of Fura-2/AM was added and the cells were incubated for 45 minutes in a 37° C., 5% CO2 incubator. After the appropriated time, the cells are harvested, washed again with RPMI medium, and then suspended in the appropriate amount of RPMI medium supplemented with 250 μM of sulfinpyrazone, in order to prevent loss of Fura-2 entering the cells. About 2×10^6 cells were taken each time, harvested by rapid centrifugation, and resuspended in 1 ml of a Locke solution without addition of calcium ions and EGTA added, and the ratio of absorbance at two wavelengths of 340 nm and 380 nm on a spectrophotometer were monitored by treating the peptides according to an embodiment of the present invention at different concentrations (1 μM, 0.1 μM, and 0.01 μM) at intervals of about 1 minute, and then the difference in absorbance at two wavelengths was investigated. It was converted to the concentration of free calcium ions into cells according to the method of Grynkiewicz.

S. aureus = format: cell-based, Staphylococcus aureus; conditions: 18 h
Protocol: as §1, §2

Row | Structure (SMILES) | Antimicrobial activity (IC50, μg/ml) P. aeruginosa (P. aeruginosa) [µg/mL] | EC50 (FPR2) [nM] | Antimicrobial activity (IC50, μg/ml) S. aureus (S. aureus) [µg/mL]
1 | CCCC[C@H](NC(=O)[C@H](Cc1c[nH]c2ccccc12)NC(=O)[C@H](Cc1c[nH]c2ccccc12)NC(=O)[C@H](CCCNC(=N)N)NC(=O)[C@H](Cc1ccc2ccccc2c1)NC(C)=O)C(=O)N[C@@H](Cc1c[nH]c2ccccc12)C(=O)N[C@H](CCSC)C(N)=O [Peptide V20_Ac, Ac-ZRWW-Nle-Wm-NH2] (Ac-[2Nal]RWW[Nle]W[dM]-NH2) | >50 | 45.3 | >50
2 | CSCC[C@@H](NC(=O)[C@H](Cc1c[nH]c2ccccc12)NC(=O)[C@H](CCCNC(=N)N)NC(=O)[C@H](Cc1c[nH]c2ccccc12)NC(=O)[C@H](Cc1c[nH]c2ccccc12)NC(=O)[C@H](CCCNC(=N)N)NC(=O)[C@H](CCCNC(=N)N)NC(C)=O)C(N)=O [Peptide V24_Ac, Ac-RRWWRWm-NH2] (Ac-RRWWRW[dM]-NH2) | 47.8 | 58.6 | 24.0

From patent publication US11382946B2, “Multi-functional peptides and use thereof” (NOVACELL TECHNOLOGY INC., priority 2019, dated 2022)
